Experimental data taken from paper PMC7195466, “A common allosteric mechanism regulates homeostatic inactivation of auxin and gibberellin” (Nature Communications, 2020).

Assays:
OsGA2ox6 = biological target: T1, OsGA2ox6 (Oryza sativa, UniProt Q7XP65); assay: gel filtration, ligand-induced dimerization; assay type: binding; conditions: 10 mM GA4 incubation, 18 h, 25 °C, pH 7.4; interface (allosteric)
T1 construct: gene GA2OX6; full-length coding region in pGEX6P1 (GST fusion); C20-type; monomer, dimer with GA4
T1 sequence (Q7XP65 1-358): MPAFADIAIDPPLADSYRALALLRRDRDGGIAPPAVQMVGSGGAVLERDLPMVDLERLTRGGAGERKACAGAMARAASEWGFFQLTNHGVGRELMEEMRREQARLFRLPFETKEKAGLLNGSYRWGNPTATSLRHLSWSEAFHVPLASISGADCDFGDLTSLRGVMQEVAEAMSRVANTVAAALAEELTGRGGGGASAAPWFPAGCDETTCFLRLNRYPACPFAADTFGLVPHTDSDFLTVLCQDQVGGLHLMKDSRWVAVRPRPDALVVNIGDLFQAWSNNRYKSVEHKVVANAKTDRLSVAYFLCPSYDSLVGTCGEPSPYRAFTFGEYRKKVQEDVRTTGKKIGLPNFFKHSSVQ

[1] = biological target: T2, OsGA2ox3 (GA 2-oxidase 3) (Oryza sativa, UniProt Q8S0S6); assay: X-ray crystal structure, […] Å; assay type: binding; conditions: Fe(II) absent
T2 construct: gene GA2OX3; full-length coding region in pGEX6P1, GST tag cut off with PreScission protease, E. coli Rosetta (DE3) pLysS; monomer, homotetramer with GA4
T2 sequence (Q8S0S6 whole entry): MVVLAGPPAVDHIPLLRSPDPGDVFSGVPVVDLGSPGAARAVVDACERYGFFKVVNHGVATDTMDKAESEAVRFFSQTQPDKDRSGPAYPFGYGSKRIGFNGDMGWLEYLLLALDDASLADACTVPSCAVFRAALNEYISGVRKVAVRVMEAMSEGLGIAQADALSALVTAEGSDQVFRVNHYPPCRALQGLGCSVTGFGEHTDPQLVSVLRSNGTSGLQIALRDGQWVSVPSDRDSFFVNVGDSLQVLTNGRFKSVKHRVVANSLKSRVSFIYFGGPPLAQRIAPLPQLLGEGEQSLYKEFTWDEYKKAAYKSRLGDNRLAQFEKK

[2] = biological target: T3, OsGA2ox3 (GA 2-oxidase 3) (Oryza sativa, UniProt Q8S0S6, C194A/K308A/K313A); assay: GC-SIM-MS of GA34, activity after incubation with GA4; assay type: biochemical; conditions: 3Mu, interface-site mutant; same
T3 construct: gene GA2OX3; full-length coding region in pGEX6P1, GST tag cut off with PreScission protease, E. coli Rosetta (DE3) pLysS; monomer, homotetramer with GA4
T3 sequence (Q8S0S6 whole entry C194A/K308A/K313A): as the sequence (Q8S0S6 whole entry) above, with C194A, K308A, K313A counted along it

[3] = biological target: T4, OsGA2ox3 (GA 2-oxidase 3) (Oryza sativa, UniProt Q8S0S6, K308A); assay: as above; assay type: biochemical; conditions: interface-site mutant; 2-oxoglutarate, Fe(II), pH 7.9, 30 °C
T4 construct: gene GA2OX3; full-length coding region in pGEX6P1, GST tag cut off with PreScission protease, E. coli Rosetta (DE3) pLysS; monomer, homotetramer with GA4
T4 sequence (Q8S0S6 whole entry K308A): as the sequence (Q8S0S6 whole entry) above, with K308A counted along it
Description: GC-SIM-MS of GA34, activity after incubation with GA4 on OsGA2ox3 (GA 2-oxidase 3) | a single mutation, such as […] or 3Mu, led to no activation by GA4

[4] = biological target: T5, OsDAO (dioxygenase for auxin oxidation) (Oryza sativa, UniProt Q7XKU5); assay: X-ray crystal structure, […] Å; assay type: binding; conditions: allosteric, two IAA molecules at the dimer interface; crystallised with 2-oxoglutarate
T5 construct: gene DAO; full-length coding region in pGEX6P1, GST tag cut off with PreScission protease, E. coli Rosetta (DE3) pLysS; monomer, dimer with IAA
T5 sequence (Q7XKU5 1-300): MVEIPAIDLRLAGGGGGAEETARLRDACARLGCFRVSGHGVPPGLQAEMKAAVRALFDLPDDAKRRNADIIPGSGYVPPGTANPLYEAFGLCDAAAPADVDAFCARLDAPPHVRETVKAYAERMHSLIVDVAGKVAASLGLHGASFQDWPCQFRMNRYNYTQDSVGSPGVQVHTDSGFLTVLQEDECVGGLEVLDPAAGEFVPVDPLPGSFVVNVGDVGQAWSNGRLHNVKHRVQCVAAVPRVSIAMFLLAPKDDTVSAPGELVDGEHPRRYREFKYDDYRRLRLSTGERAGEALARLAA

Compound: C=C1C[C@]23C[C@H]1CC[C@H]2[C@@]12CC[C@H](O)[C@@](C)(C(=O)O1)[C@H]2[C@@H]3C(=O)O [GA4]
- gel filtration, ligand-induced dimerization (OsGA2ox6): The presence of GA4 induced a new peak of its dimer form
- X-ray crystal structure, 2.15 Å ([1]; active site and second site (allosteric, subunit interface), 2-oxoglutarate present): We crystallized the enzyme with the co-substrates, 2OG and GA4 in the absence Fe(II)
- GC-SIM-MS of GA34, activity after incubation with GA4 [2]: no activation of 3Mu occurred at all
- GC-SIM-MS of GA34, activity after incubation with GA4 [3]: a single mutation, such as K308A or 3Mu, led to no activation by GA4

Compound: O=C(O)Cc1c[nH]c2ccccc12 [indole-3-acetic acid]
- X-ray crystal structure, 2.0 Å [4]: We elucidated the crystal structure of OsDAO complexed with its substrate, IAA

Compound: O=C(O)CCC(=O)C(=O)O [2OG]
- X-ray crystal structure, 2.15 Å ([1]; active site, co-substrate, GA4 present): the amino acids interacting with 2OG (R269, S271, and Y183
